Assay results published in patent US20200002354A1, “HEXAHYDROPYRAZINOBENZ- OR -PYRIDO-OXAZEPINES CARRYING AN OXYGEN-CONTAINING SUBSTITUENT AND USE THEREOF IN THE TREATMENT OF 5-HT2C-DEPENDENT DISORDERS” (AbbVie Deutschland GmbH & Co. KG, priority 2015, published 2020).
Counter-ions that a name gives are not always drawn. Like-named read-outs stand apart in the source and are kept apart here.

Tests used:
human 5-HT2A receptor = target: T1, human 5-HT2A receptor (Homo sapiens, UniProt P28223); test: Human 5-HT2A functional assay (calcium mobilisation in CHO-K1 cells, FLIPR); type: cell-based; details: based on agonism: EC50 5-HT2A/EC50 5-HT2C
T1 construct: expressed in transfected cells; host or cells: CHO-K1
Description: 2. Human 5-HT2A Functional Assay
Functional activity on the 5-HT2A receptor was determined by testing the effect of the compounds I on calcium mobilisation in CHO-K1 cells, stably transfected with human 5-HT2A receptor. Cells were seeded into sterile black 384-well plates with clear bottom at 25,000 cells/well in a volume of 25 μl and grown for 5-6 hours at 37° C., in 5% CO2 in tissue culture medium (“Ultra CHO” by LONZA), containing 1% dialysed FCS and 50 μg/ml gentamicin (Invitrogen). After this incubation, medium was replaced by a serum free version of the same tissue culture medium followed by incubation overnight at 37° C. and in 5% CO2. Cells were then loaded with a fluorescent calcium-sensitive dye in the presence of 0.07% probenecid for an hour at 37° C., according to the manufacturer's protocol (Ca5-Assay Kit, Molecular Devices), followed by an additional 60 min incubation at room temperature. Serial compound dilutions (final concentrations of 10^−10 to 10^−5M, prepared in HBSS+50 mM HEPES) were first added to the cells alone (“first addition” to assess agonism on the 5-HT2A receptor), then after 8 min, serotonin was added to the same wells at a final concentration of 3×10^−8 M (“second addition” to see potential antagonistic effect) and the maximal calcium response was determined using a FLIPR® Tetra instrument (Molecular Devices) in each of the two steps. The relative efficacy of the compounds was calculated as a percentage of the maximal effect induced by serotonin alone (defined as 100%). To determine EC50/IC50 values, concentration-response curves were fitted using a four-parameter logistic equation (IDBS Biobookml). Kb values were calculated from IC50 values, according to Cheng & Prusoff

[1] = Metabolic stability in human liver microsomes, unbound intrinsic clearance; type: in vitro ADME; details: pH 7.4, unbound intrinsic clearance (human), Clint unbound = Cl int/fu mic, read-out: Cl int, mic unb. (h)
Description: Samples of the tested compounds (0.5 μM) were preincubated together with human liver microsomes (0.25 mg of microsomal protein/mL) in 0.05 M potassium phosphate buffer of pH 7.4 in microtiter plates at 37° C. for 5 minutes. The reaction was started by adding NADPH (1.0 mM). After 0, 5, 10, 15, 20 and 30 minutes, an aliquot was removed, the reaction was cooled and stopped by adding twice the amount of quench solution consisting of acetonitrile/methanol 1:1, and containing 0.2 μM carbutamide as internal standard. The samples were frozen until analyzed. The remaining concentration of undegraded test substance was determined by liquid chromatography-tandem mass spectrometry (LC-MS/MS). The half-life (t1/2) was determined from the gradient of the ratio of the signal of (test substance/internal standard)/unit time plot, allowing the calculation of the half-life of the test substance, assuming first order kinetics, from the decrease in the concentration of the compound with time. The microsomal clearance (mClint) was calculated as follows: mClint=((ln(2)/t ½)/Microsomal Protein Concentration (mg/ml))*1000, leading to the unit of uL/min/mg. The scaled clearance (mClin_scaled) was calculated as mCLint_scaled=m CLint*(Microsomal Yield (mg/kg BW))/1000000*60, leading to the units L/h/kg. The Microsomal Yield is defined by the specifics of the used microsomes. Calculations were modified from references: Di, The Society for Biomolecular Screening, 2003, 453-462; Obach, D M D, 1999 vol 27. N 11, 1350-1359.
Calculation of Unbound Intrinsic Clearance
C1int unbound=C1 int/fu mic

5-HT2C receptor = target: T2, 5-HT2C receptor (Homo sapiens, UniProt P28335); test: Human 5-HT2C functional assay (beta-arrestin2 recruitment, U2OS_HTR2C_β-Arrestin cells); type: cell-based; details: for EC50: Potency (EC50 5-HT2C) in functional assay, agonism, read-out: EC50 5-HT2C; for Emax: relative efficacy vs maximal effect induced by 5-HT (defined as 100%)
T2 construct: host or cells: U2OS
Description: 1. Human 5-HT2C Functional Assay
The functional activity of compounds of formula I was assayed by incubation with U2OS_HTR2C_β-Arrestin cells (DiscoverX, 93-0289C3) to induce beta-arrestin2 recruitment to the 5-HT2C receptor. The agonist-induced recruitment and proximity of the receptor and beta-arrestin2 leads to complementation and formation of active β-galactosidase. The enzyme complementation results in enzyme activity, which is measured following the termination of the agonist incubation using DiscoveRx's detection reagent, which contains a chemiluminescent substrate which produces a high intensity signal. Cells were plated and a medium-change to a 1% serum containing medium was performed 24 h later. The next day, test compounds were added and incubated for 1.5 h before addition of detection reagent.
The response produced was measured and compared with the response produced by 10 [mu]M 5-HT or the maximal effect induced by 5-HT (defined as 100%) to which it was expressed as a percentage response (relative efficacy).

T1 sequence (P28223 whole entry): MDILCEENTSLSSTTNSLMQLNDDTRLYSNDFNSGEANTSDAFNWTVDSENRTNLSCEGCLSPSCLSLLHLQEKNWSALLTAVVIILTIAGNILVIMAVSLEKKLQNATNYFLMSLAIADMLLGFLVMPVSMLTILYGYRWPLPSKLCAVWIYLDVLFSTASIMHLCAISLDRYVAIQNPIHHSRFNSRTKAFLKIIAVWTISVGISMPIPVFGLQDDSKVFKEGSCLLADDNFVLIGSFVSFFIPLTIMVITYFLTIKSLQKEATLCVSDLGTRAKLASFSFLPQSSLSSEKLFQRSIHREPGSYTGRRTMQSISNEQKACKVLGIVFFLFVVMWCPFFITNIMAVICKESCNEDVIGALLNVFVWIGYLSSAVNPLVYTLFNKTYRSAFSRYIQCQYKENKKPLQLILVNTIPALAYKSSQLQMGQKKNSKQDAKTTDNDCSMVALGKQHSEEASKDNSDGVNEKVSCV
T2 sequence (P28335 33-458): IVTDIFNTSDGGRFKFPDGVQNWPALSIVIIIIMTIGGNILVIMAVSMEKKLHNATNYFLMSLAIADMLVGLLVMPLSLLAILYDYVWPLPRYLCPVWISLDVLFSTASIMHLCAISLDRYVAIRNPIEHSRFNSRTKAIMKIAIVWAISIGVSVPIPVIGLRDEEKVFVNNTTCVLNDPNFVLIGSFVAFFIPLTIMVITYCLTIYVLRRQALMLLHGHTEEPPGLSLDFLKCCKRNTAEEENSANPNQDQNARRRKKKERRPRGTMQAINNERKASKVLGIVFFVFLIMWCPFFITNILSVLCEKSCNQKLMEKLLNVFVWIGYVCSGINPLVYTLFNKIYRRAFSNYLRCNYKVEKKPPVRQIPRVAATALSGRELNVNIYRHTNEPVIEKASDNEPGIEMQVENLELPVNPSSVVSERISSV
T2 sequence (P32121 whole entry partner): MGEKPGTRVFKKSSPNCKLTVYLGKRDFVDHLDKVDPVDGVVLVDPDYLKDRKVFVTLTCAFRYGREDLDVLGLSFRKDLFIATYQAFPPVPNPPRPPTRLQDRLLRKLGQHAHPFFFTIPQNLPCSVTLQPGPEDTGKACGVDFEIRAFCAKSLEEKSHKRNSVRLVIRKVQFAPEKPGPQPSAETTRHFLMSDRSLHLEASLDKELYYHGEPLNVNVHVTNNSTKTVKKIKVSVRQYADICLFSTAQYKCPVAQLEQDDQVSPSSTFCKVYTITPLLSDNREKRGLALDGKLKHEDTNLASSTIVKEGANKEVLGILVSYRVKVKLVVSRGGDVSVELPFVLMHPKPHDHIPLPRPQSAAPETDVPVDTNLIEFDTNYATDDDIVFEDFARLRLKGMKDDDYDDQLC

Row | Structure (SMILES) | Selectivity over 5-HT2A (human 5-HT2A receptor) | CLint scaled at 0.5 μM ([1]; liver microsomes) [mL/min/kg] | EC50 (5-HT2C receptor) [nM] | Emax (5-HT2C receptor) [%] | CLint scaled at 0.5 μM ([1]; microsomes) [mL/min/kg]
1 | COC[C@@H]1C[C@@H]2CNCCN2c2cc(F)cc(C)c2O1.Cl [Example 41, (4aR,6S)-10-Fluoro-6-(methoxymethyl)-8-methyl-2,3,4,4a,5,6-hexahydro-1H-pyrazino[2,1-d][1,5]benzoxazepine hydrochloride] | +++ (>100) | < 83.3 | < 20 | > 70 | –
2 | COC[C@@H]1C[C@@H]2CNCCN2c2nccc(C(F)F)c2O1.O=C(O)C(F)(F)F [Example 27, (6S,7aR)-4-(Difluoromethyl)-6-(methoxymethyl)-7,7a,8,9,10,11-hexahydro-6H-pyrazino[1,2-d]pyrido[3,2-b][1,4]oxazepine; 2,2,2-trifluoroacetic acid] | ++ (from >30 to 100) | – | 20 to 200 | > 70 | < 83.3
3 | COC[C@@H]1C[C@@H]2CNCCN2c2cccc(F)c2O1.Cl [Example 50, (4aR,6S)-8-Fluoro-6-(methoxymethyl)-2,3,4,4a,5,6-hexahydro-1H-pyrazino[2,1-d][1,5]benzoxazepine hydrochloride] | ++ (from >30 to 100) | < 83.3 | 20 to 200 | > 70 | –
4 | COC[C@@H]1C[C@@H]2CNCCN2c2cccc(OC(F)F)c2O1 [Example 42, (4aR,6S)-8-(Difluoromethoxy)-6-(methoxymethyl)-2,3,4,4a,5,6-hexahydro-1H-pyrazino[2,1-d][1,5]benzoxazepine] | + (from 10 to 30) | < 83.3 | < 20 | > 70 | –
5 | COC[C@@H]1C[C@@H]2CNCCN2c2cccc(C3CC3)c2O1.Cl [Example 48, (4aR,6S)-8-Cyclopropyl-6-(methoxymethyl)-2,3,4,4a,5,6-hexahydro-1H-pyrazino[2,1-d][1,5]benzoxazepine hydrochloride] | + (from 10 to 30) | < 83.3 | < 20 | > 70 | –
6 | OC[C@@H]1C[C@@H]2CNCCN2c2cc(F)cc(Cl)c2O1 [Example 17, [(4aR,6S)-8-Chloro-10-fluoro-2,3,4,4a,5,6-hexahydro-1H-pyrazino[2,1-d][1,5]benzoxazepin-6-yl]methanol hydrochloride] | – | < 83.3 | < 20 | > 70 | –
7 | Cl.OC[C@@H]1C[C@@H]2CNCCN2c2cc(F)cc(C(F)F)c2O1 [Example 23, [(4aR,6S)-8-(Difluoromethyl)-10-fluoro-2,3,4,4a,5,6-hexahydro-1H-pyrazino[2,1-d][1,5]benzoxazepin-6-yl]methanol hydrochloride] | + (from 10 to 30) | < 83.3 | < 20 | > 70 | –
8 | Cl.OC[C@@H]1C[C@@H]2CNCCN2c2cccc(Cl)c2O1 [Example 14, [(4aR,6S)-8-Chloro-2,3,4,4a,5,6-hexahydro-1H-pyrazino[2,1-d][1,5]benzoxazepin-6-yl]methanol hydrochloride] | +++ (>100) | – | 20 to 200 | > 70 | < 83.3
9 | Cl.OC[C@@H]1C[C@@H]2CNCCN2c2c(F)c(F)cc(Cl)c2O1 [Example 20, [(4aR,6S)-8-Chloro-10,11-difluoro-2,3,4,4a,5,6-hexahydro-1H-pyrazino[2,1-d][1,5]benzoxazepin-6-yl]methanol hydrochloride] | +++ (>100) | < 83.3 | 20 to 200 | > 70 | –
10 | COC[C@@H]1C[C@@H]2CNCCN2c2cc(F)cc(C3CC3)c2O1.Cl [Example 49, (4aR,6S)-8-Cyclopropyl-10-fluoro-6-(methoxymethyl)-2,3,4,4a,5,6-hexahydro-1H-pyrazino[2,1-d][1,5]benzoxazepine hydrochloride] | ++ (from >30 to 100) | < 83.3 | < 20 | > 70 | –
